{
  "source": "patent US20250032635A1",
  "about": "“LIGAND-POLAR DRUG CONJUGATES” (priority 2023, published 2025)",
  "key": {"[1]": {"tested_on": "JIMT-1", "experiment": "In vitro cytotoxicity assay, JIMT-1", "assay_type": "cell-based", "settings": "JIMT-1, HER2++", "description": "(§1) Breast cancer cell line MDA-MB-231 and SK-BR-3, gastric cancer cell line NCI-N87, ovarian cancer cell line SK-OV-3, and pancreatic cancer cell line Capan-1 were purchased from ATCC. Breast cancer cell line JIMT-1 was purchased from Deutsche Sammlung von Mikroorganismen und Zellkulturen (DSMZ, Germany). Gastric cancer cell line MKN45 was purchased from RIKEN. Human umbilical vein endothelial cell line (HUVAC) was purchased from BCRC (Bioresource Collection and Research Center, Hsinchu City, Taiwan).\n(§2) Human MDR1 overexpressed NCI-N87 (NCI-N87-hMDR1) cell line was produced by lentiviral vector-mediated gene transduction. Briefly, the lentiviral transfer vector contains both hEF1α promotor-driven hMDR1 coding sequence (CDS) and hPGK promoter-driven EGFP-IRES-Puro bicistronic cassette. The lentivirus was packaged using second-generation lentiviral system in 293T cell line. After transfection, stable NCI-N87-hMDR1 was selected and maintained in puromycin (0.55 μg/mL) containing RPMI-1640 medium. JIMT-1 and MDA-MB-231 were maintained in DMEM supplemented with 10% heat-inactivated fetal bovine serum (FBS). […]\n(§3) In vitro cytotoxicity assays were performed as previously described (Boyd and Paull, 1995; Phillips et al., 2008). […] IC50, the half maximal inhibitory concentration, was calculated from dose-response curves which was generated by four-parameter curve fitting."}, "[2]": {"tested_on": "NCI-N87", "experiment": "In vitro cytotoxicity assay, NCI-N87", "assay_type": "cell-based", "description": "as §1\n(§4) Human MDR1 overexpressed NCI-N87 (NCI-N87-hMDR1) cell line was produced by lentiviral vector-mediated gene transduction. Briefly, the lentiviral transfer vector contains both hEF1α promotor-driven hMDR1 coding sequence (CDS) and hPGK promoter-driven EGFP-IRES-Puro bicistronic cassette. The lentivirus was packaged using second-generation lentiviral system in 293T cell line. After transfection, stable NCI-N87-hMDR1 was selected and maintained in puromycin (0.55 μg/mL) containing RPMI-1640 medium. JIMT-1 and MDA-MB-231 were maintained in DMEM supplemented with 10% heat-inactivated fetal bovine serum (FBS). NCI-N87, NCI-N87-hMDR1, SK—OV-3, and MKN45 were maintained in RPMI-1640 supplemented with 10% heat-inactivated FBS. SK-BR-3 was maintained in McCoy's 5A supplemented with 10% heat-inactivated FBS. Capan-1 was maintained in IMDM supplemented with 20% heat-inactivated FBS. HUVAC was maintained in M199 supplemented with 25 U/mL heparin, 30 μg/mL ECGS and 10% heat-inactivated FBS. All cell lines were cultured at 37° C. under 5% CO2 atmosphere.\n(§5) In Vitro Cytotoxicity Assays of APDCs\nas §3"}, "[3]": {"tested_on": "JIMT-1 xenograft", "experiment": "JIMT-1 xenograft tumor model, cytotoxic APDCs", "assay_type": "in vivo, mice", "settings": "single intravenous injection 10 mg/kg at day zero", "experimental": "Xenograft Tumor Model Experiments for Cytotoxic APDCs\nExperiments of xenograft tumor model with cytotoxic APDCs were performed as previously described (Jumbe et al., 2010)."}, "[4]": {"tested_on": "MKN45", "experiment": "In vitro cytotoxicity assay, MKN45", "assay_type": "cell-based", "settings": "MKN45, HER2+", "description": "as §1, §2, §3"}, "[5]": {"tested_on": "SK-BR-3", "experiment": "In vitro cytotoxicity assay, SK-BR-3", "assay_type": "cell-based", "settings": "SK-BR-3, HER2+++", "description": "as §1, §2, §3"}, "[6]": {"tested_on": "NCI-N87-hMDR1", "experiment": "In vitro cytotoxicity assay, MDR1-overexpressing NCI-N87-hMDR1", "assay_type": "cell-based", "experimental": "as §4, §5, §3"}, "[7]": {"tested_on": "Capan-1", "experiment": "In vitro cytotoxicity assay, Capan-1", "assay_type": "cell-based", "settings": "Capan-1, HER2++", "description": "as §1, §2, §3"}, "[8]": {"tested_on": "MDA-MB-231", "experiment": "In vitro cytotoxicity assay, MDA-MB-231", "assay_type": "cell-based", "settings": "MDA-MB-231, HER2+", "description": "as §1, §2, §3"}},
  "data": [
    {"substance": "Trastuzumab emtansine [Kadcyla]", "values": [
      {"measurement": "IC50", "setting": "[1]; Table 2", "value": 14, "unit": "nM"},
      {"measurement": "GI50", "setting": "[1]; Table 3", "value": 15, "unit": "nM"},
      {"measurement": "IC50", "setting": "[2]; NCI-N87, HER2+++, Table 2", "value": 0.15, "unit": "nM"},
      {"measurement": "GI50", "setting": "[2]; NCI-N87, HER2+++, Table 3", "value": 0.24, "unit": "nM"},
      {"measurement": "IC50", "setting": "[2]; NCI-N87, Table 4 (MDR1 comparison)", "value": 0.38, "unit": "nM"},
      {"measurement": "GI50", "setting": "[2]; NCI-N87, Table 5 (MDR1 comparison)", "value": 0.53, "unit": "nM"},
      {"measurement": "tumor volume as a function of time (FIG. 1)", "setting": "[3]", "value": "significant tumor growth"},
      {"measurement": "IC50", "setting": "[4]; Table 2", "value": 52, "unit": "nM"},
      {"measurement": "GI50", "setting": "[4]; Table 3", "value": 107, "unit": "nM"},
      {"measurement": "IC50", "setting": "[5]; Table 2", "value": 0.06, "unit": "nM"},
      {"measurement": "GI50", "setting": "[5]; Table 3", "value": 0.052, "unit": "nM"},
      {"measurement": "IC50", "setting": "[6]; NCI-N87-hMDR1, Table 4", "value": 2.5, "unit": "nM"},
      {"measurement": "GI50", "setting": "[6]; NCI-N87-hMDR1, Table 5", "value": 6.7, "unit": "nM"},
      {"measurement": "NCI-N87/NCI-N87-hMDR1 (folds), GI50", "setting": "[6]; ratio of GI50 values, Table 5", "value": 13, "unit": "folds"},
      {"measurement": "IC50", "setting": "[7]; Table 2", "value": 86, "unit": "nM"},
      {"measurement": "GI50", "setting": "[7]; Table 3", "value": 64, "unit": "nM"},
      {"measurement": "IC50", "setting": "[8]; Table 2", "value": 62, "unit": "nM"},
      {"measurement": "GI50", "setting": "[8]; Table 3", "value": 156, "unit": "nM"}
    ]}
  ]
}
